Laboratory results taken from patent US20220401514A1, “ANTIMICROBIAL, BACTERIOPHAGE-DERIVED POLYPEPTIDES AND THEIR USE AGAINST GRAM-NEGATIVE AND ACID-FAST BACTERIA” (CONTRAFECT CORPORATION, priority 2019, published 2022).
In brackets after ≈: the same amount, converted by molar mass.

Legend:
[1] = test system: Acinetobacter baumannii strain 30; assay: Checkerboard assay (FICI) with antibiotics, A. baumannii; type: cell-based; conditions: checkerboard
Experimental: (§1) Checkerboard assays. […] Checkerboards were constructed by first preparing columns of a 96-well polypropylene microtiter plate, in which each well had the same amount of antibiotic diluted 2-fold along the horizontal axis. […] Summation fractional inhibitory concentration index (FICIs) were calculated for each drug and the minimum FICI was used to determine synergy. FICIs were calculated as follows: FICI=FIC A+FIC B, where FIC A is the MIC of each antibiotic in the combination/MIC of the each antibiotic alone, and FIC B is the MIC of each Chp peptide in the combination/MIC of each Chp peptide alone. The combination is considered synergistic when the FICI is ≤0.5, strongly additive when the FICI is >0.5 to <1, additive with the FICI is 1-<2, and antagonistic when the FICI is ≥2.
The results are shown below in Tables 22-27.

[2] = test system: Stenotrophomonas-containing biofilm on explanted hemodialysis catheters; assay: Antibiofilm activity in explanted hemodialysis catheters; type: cell-based, Stenotrophomonas spp.
Experimental: The explanted hemodialysis catheters were cut into equal length segments and bisected to expose the lumen.
The samples were treated for 4 hours at 37° C. before rinsing with Lactated Ringer's solution.
Three additional infected hemodialysis catheter samples were removed from two patients (one catheter from a first patient and two catheters from a second patient). […] The samples were incubated at 37° C. for 4 hours.

[3] = test system: carbapenem-resistant bacterial strains; assay: organism not typed; type: cell-based; conditions: carbapenem-resistant isolate PA23
Description: Determination of Minimal Inhibitory Concentrations (MIC).

[4] = test system: Klebsiella pneumoniae strain 1139; assay: Checkerboard assay (FICI) with antibiotics, K. pneumoniae; type: cell-based
Experimental: as §1

[5] = test system: P. aeruginosa strain CFS-1292; assay: Checkerboard assay (FICI) with antibiotics, P. aeruginosa; type: cell-based, Pseudomonas aeruginosa; conditions: for Antibiotic FIC: P. aeruginosa CFS-1292; for Antibiotic MIC in checkerboard: P. aeruginosa CFS-1292, CAA + […] human serum
Experimental: Any known method to assess MIC may be used.
Checkerboards are constructed by first preparing columns of e.g., a 96-well polypropylene microtiter plate, wherein each well has the same amount of antibiotic diluted 2-fold along the horizontal axis. […] Bacteria are added to the drug combinations at concentrations of 1×10^5 […] in CAA, for example, with or without human serum or pulmonary surfactant. […] Summation fractional inhibitory concentrations (ΣFICs) are calculated for each drug and the minimum ΣFIC value (ΣFICmin) is used to determine the effect of the Chp peptide/antibiotic combination.
as §1
In the checkerboard assay, fractional inhibitory concentration index (FICI) values are calculated.

[6] = checkerboard, in combination with Chp4-M1
[7] = checkerboard, in combination with Chp6-M1
[8] = checkerboard, in combination with Chp10-M1

C[C@@H](O)[C@H]1C(=O)N2C(C(=O)O)=C(S[C@@H]3CN[C@H](C(=O)N(C)C)C3)[C@H](C)[C@H]12 [meropenem, reference compound] was tested, and the “Antibiotic FIC” value ([1]; in combination with Chp2) was 0.25, the “Antibiotic FIC” value ([1]; in combination with Chp2-M1) was 0.25 and the “Antibiotic FIC” value ([1]; in combination with Chp4-M1) was 0.25. For the same compound, the “Antibiotic FIC” value ([1]; in combination with Chp6-M1) was 0.25, the “Antibiotic FIC” value ([1]; in combination with Chp10-M1) was 0.125 and the “Antibiotic FIC” value ([1]; in combination with Unp2-M1) was 0.25. For the same compound, the “eradication of biofilm on three additional catheter samples” value ([2]; Chp2-M1 1 μg/mL and 10 μg/mL, meropenem 1 μg/mL) was “did not eliminate biofilm”, the “log10 CFU/g” value ([2]; second catheter sample from the second patient, 1 μg/mL, 4 hours) was 3.16 log10 CFU/g and the MIC [3] was 8 µg/mL (≈ 20.9 µM). For the same compound, the “Antibiotic FIC” value [4, 6] was 0.125, the “Antibiotic MIC” value [4, 6] was 0.007812 µg/mL and the “Antibiotic FIC” value [4, 7] was 0.25. For the same compound, the “Antibiotic MIC” value [4, 7] was 0.01562 µg/mL, the “Antibiotic FIC” value [4, 8] was 0.125 and the “Antibiotic MIC” value [4, 8] was 0.01562 µg/mL. For the same compound, the “Antibiotic FIC” value ([4]; checkerboard, in combination with Unp2-M1) was 0.03125, the “Antibiotic FIC” value ([4]; combined with Chp2) was 0.25 and the “Antibiotic MIC in checkerboard” value ([4]; combined with Chp2) was 0.01562 µg/mL. The “Antibiotic FIC” value ([4]; combined with Chp2-M1) was 0.25, the “Antibiotic MIC in checkerboard” value ([4]; combined with Chp2-M1) was 0.01562 µg/mL and the “Antibiotic FIC” value ([5]; combined with Chp2-M1) was 0.25. For the same compound, the “Antibiotic MIC in checkerboard” value ([5]; combined with Chp2-M1) was 4 µg/mL, the “Antibiotic FIC” value ([5]; combined with Chp2) was 0.25 and the “Antibiotic MIC in checkerboard” value ([5]; combined with Chp2) was 4 µg/mL. For the same compound, the “Antibiotic FIC” value ([5]; combined with Chp4-M1) was 0.25, the “Antibiotic MIC in checkerboard” value ([5]; combined with Chp4-M1) was 4 µg/mL and the “Antibiotic FIC” value ([5]; combined with Chp6-M1) was 0.25. The “Antibiotic MIC in checkerboard” value ([5]; combined with Chp6-M1) was 4 µg/mL, the “Antibiotic FIC” value ([5]; combined with Chp10-M1) was 0.25 and the “Antibiotic MIC in checkerboard” value ([5]; combined with Chp10-M1) was 2 µg/mL. The “Antibiotic FIC” value ([5]; combined with Unp2-M1) was 0.25 and the “Antibiotic MIC in checkerboard” value ([5]; combined with Unp2-M1) was 4 µg/mL.
